In ChEMBL document CHEMBL5665443, “Enzyme Inhibitor Single Concentration assay results for EUbOPEN Chemogenomics Library” (2024) one finds inhibition data, which are given here for 20 compounds.

Molecules are shown by their SMILES.

What all share (conditions): Compound Concentration 10.0 uM, Hit No
Assay [1] concerns the target DNA-3-methyladenine glycosylase (Homo sapiens) (UniProt P29372).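 Note: enzyme assay where MPG cuts a quenched duplex DNA oligonucleotide probe, paired with APE1 for strand incision and turnover, read as fluorescence at 594 nm.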
Description: Inhibition of MPG by quantifying inhibition of MPG-mediated cleavage and dissociation of quenched duplex DNA oligonucleotides, measured as fluorescence at 594 nm. To generate a functional strand incision and increase turn-over this assay is coupled to APE1.
Assay [2] addresses T1, Endonuclease 8-like 2 (Homo sapiens) (UniProt Q969S2).
T1 sequence (whole entry): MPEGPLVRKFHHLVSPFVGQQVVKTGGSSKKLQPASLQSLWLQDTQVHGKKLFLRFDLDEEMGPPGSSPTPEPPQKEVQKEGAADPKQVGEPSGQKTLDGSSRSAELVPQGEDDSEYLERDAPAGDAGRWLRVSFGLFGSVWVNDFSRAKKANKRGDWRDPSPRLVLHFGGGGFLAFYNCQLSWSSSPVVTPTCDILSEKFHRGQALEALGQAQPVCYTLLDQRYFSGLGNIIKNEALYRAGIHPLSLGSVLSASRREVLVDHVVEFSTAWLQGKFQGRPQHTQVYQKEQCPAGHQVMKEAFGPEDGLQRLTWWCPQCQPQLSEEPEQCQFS
Description: Inhibition of NEIL2 by quantifying inhibition of NEIL2-mediated cleavage and dissociation of quenched duplex DNA oligonucleotides, measured as fluorescence at 594 nm.

In assay [3] the target is Uracil-DNA glycosylase (Homo sapiens) (UniProt P13051).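 Note: UNG excision on a quenched double-stranded DNA oligo probe, with APE1 added for strand incision and turnover, read as fluorescence at 594 nm as strands separate.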
Description: Inhibition of UNG by quantifying inhibition of UNG-mediated cleavage and dissociation of quenched duplex DNA oligonucleotides, measured as fluorescence at 594 nm. To generate a functional strand incision and increase turn-over this assay is coupled to APE1.
The target in assay [4] is T2, Endonuclease III-like protein 1 (Homo sapiens) (UniProt P78549).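 Note: enzyme assay tracking NTHL1 cutting and release of a quenched double-stranded DNA oligo substrate, read as fluorescence at 594 nm.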
T2 sequence (whole entry): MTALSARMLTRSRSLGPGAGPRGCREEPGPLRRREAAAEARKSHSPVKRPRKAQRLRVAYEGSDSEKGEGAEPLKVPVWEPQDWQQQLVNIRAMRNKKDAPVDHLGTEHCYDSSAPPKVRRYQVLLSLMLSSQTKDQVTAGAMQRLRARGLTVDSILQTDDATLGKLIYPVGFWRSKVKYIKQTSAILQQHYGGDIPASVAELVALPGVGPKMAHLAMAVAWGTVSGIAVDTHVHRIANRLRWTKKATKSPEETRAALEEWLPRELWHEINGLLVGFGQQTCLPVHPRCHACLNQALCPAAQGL
Description: Inhibition of NTHL1 by quantifying inhibition of NTHL1-mediated cleavage and dissociation of quenched duplex DNA oligonucleotides, measured as fluorescence at 594 nm.

The target of assay [5] is Methyl-CpG-binding domain protein 4 (Homo sapiens) (UniProt O95243).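 Note: MBD4 activity read as fluorescence at 594 nm from cleavage and release of a quenched duplex DNA oligonucleotide, with APE1 coupled to incise the strand and raise turnover.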
Description: Inhibition of MBD4 by quantifying inhibition of MBD4-mediated cleavage and dissociation of quenched duplex DNA oligonucleotides, measured as fluorescence at 594 nm. To generate a functional strand incision and increase turn-over this assay is coupled to APE1.
The target of assay [6] is Endonuclease 8-like 1 (Homo sapiens) (UniProt Q96FI4).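 Note: fluorescence at 594 nm from quenched duplex DNA oligonucleotides released by NEIL1 cleavage and strand separation, reported as reduction of this enzyme activity.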
Description: Inhibition of NEIL1 by quantifying inhibition of NEIL1-mediated cleavage and dissociation of quenched duplex DNA oligonucleotides, measured as fluorescence at 594 nm.
Assay [7] deals with G/T mismatch-specific thymine DNA glycosylase (Homo sapiens) (UniProt Q13569).
Description: Inhibition of TDG by quantifying inhibition of TDG-mediated cleavage and dissociation of quenched duplex DNA oligonucleotides, measured as fluorescence at 594 nm. To generate a functional strand incision and increase turn-over this assay is coupled to APE1.
The target of assay [8] is T3, Adenine DNA glycosylase (Homo sapiens) (UniProt Q9UIF7).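 Note: human MUTYH activity read as 594 nm fluorescence from cleavage and release of a quenched DNA duplex, coupled with APE1 for strand incision, lower signal meaning inhibition.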
T3 sequence (whole entry): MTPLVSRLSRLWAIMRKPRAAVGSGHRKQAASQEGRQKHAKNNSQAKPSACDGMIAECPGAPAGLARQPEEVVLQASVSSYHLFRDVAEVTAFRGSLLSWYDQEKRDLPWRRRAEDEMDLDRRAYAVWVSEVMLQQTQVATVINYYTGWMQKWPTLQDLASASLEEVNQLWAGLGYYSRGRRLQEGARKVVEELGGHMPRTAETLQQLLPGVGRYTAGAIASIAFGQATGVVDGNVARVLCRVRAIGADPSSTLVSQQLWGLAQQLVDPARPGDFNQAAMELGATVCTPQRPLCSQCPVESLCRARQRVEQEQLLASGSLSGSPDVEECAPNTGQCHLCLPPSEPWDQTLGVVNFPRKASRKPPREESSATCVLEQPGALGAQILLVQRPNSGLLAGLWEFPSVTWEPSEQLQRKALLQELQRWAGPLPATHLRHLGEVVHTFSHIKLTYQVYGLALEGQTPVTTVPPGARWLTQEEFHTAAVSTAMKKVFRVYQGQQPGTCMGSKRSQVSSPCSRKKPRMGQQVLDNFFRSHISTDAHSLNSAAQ
Description: Inhibition of MUTYH by quantifying inhibition of MUTYH-mediated cleavage and dissociation of quenched duplex DNA oligonucleotides, measured as fluorescence at 594 nm. To generate a functional strand incision and increase turn-over this assay is coupled to APE1.

The target of assay [9] is N-glycosylase/DNA lyase (Homo sapiens) (UniProt O15527).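 Note: OGG1 cleavage of a quenched duplex DNA oligonucleotide, coupled to APE1 for strand incision, read as fluorescence at 594 nm.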
N-glycosylase/DNA lyase (Homo sapiens), sequence (O15527 whole entry): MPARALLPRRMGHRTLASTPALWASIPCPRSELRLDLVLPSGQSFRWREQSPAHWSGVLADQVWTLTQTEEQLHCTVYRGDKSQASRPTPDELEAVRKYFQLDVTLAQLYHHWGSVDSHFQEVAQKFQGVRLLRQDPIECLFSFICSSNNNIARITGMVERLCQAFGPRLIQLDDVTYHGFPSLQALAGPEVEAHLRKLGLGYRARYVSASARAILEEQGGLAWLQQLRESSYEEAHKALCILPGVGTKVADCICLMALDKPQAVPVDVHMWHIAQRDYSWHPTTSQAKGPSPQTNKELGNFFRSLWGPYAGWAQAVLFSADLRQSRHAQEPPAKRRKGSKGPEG
Description: Inhibition of OGG1 by quantifying inhibition of OGG1-mediated cleavage and dissociation of quenched duplex DNA oligonucleotides, measured as fluorescence at 594 nm. To generate a functional strand incision and increase turn-over this assay is coupled to APE1.

DNA-3-methyladenine glycosylase (Homo sapiens), sequence (P29372 whole entry): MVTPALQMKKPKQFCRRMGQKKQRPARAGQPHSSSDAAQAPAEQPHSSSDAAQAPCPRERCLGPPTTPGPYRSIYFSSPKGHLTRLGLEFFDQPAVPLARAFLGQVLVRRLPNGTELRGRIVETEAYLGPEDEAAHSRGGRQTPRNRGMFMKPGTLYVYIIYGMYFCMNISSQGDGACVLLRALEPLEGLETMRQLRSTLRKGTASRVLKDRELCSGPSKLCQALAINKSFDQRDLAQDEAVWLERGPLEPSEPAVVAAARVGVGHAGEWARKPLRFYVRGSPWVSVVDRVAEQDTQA
Endonuclease 8-like 1 (Homo sapiens), sequence (Q96FI4 whole entry): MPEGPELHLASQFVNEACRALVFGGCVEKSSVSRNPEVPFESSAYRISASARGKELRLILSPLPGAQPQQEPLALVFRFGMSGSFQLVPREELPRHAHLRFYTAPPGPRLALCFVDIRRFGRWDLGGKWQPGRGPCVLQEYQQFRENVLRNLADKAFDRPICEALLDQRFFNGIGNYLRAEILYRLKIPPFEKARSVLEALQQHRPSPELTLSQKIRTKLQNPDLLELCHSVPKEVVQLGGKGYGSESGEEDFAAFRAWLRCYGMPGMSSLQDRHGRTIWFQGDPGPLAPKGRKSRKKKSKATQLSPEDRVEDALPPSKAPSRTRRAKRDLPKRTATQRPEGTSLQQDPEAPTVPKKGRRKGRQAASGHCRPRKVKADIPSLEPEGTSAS
G/T mismatch-specific thymine DNA glycosylase (Homo sapiens), sequence (Q13569 whole entry): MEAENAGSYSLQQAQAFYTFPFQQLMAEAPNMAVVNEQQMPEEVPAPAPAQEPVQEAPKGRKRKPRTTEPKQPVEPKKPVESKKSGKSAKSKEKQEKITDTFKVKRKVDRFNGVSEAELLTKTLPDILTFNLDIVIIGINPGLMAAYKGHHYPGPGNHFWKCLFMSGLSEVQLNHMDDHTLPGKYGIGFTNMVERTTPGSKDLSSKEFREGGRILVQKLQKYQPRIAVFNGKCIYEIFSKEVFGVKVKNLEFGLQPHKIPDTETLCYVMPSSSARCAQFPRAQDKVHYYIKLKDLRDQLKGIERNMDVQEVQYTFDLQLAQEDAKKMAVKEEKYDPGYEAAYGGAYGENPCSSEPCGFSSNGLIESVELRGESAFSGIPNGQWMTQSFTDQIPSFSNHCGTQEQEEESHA
Uracil-DNA glycosylase (Homo sapiens), sequence (P13051 whole entry): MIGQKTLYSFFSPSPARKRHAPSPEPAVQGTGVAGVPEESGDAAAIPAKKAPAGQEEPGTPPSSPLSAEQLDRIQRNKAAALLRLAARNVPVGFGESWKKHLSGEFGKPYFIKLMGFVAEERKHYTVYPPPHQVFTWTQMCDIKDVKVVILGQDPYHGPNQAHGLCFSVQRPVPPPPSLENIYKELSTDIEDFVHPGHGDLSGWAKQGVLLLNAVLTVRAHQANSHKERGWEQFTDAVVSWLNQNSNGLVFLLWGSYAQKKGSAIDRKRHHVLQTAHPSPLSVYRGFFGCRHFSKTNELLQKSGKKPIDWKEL
Methyl-CpG-binding domain protein 4 (Homo sapiens), sequence (O95243 whole entry, the tested form may be a part): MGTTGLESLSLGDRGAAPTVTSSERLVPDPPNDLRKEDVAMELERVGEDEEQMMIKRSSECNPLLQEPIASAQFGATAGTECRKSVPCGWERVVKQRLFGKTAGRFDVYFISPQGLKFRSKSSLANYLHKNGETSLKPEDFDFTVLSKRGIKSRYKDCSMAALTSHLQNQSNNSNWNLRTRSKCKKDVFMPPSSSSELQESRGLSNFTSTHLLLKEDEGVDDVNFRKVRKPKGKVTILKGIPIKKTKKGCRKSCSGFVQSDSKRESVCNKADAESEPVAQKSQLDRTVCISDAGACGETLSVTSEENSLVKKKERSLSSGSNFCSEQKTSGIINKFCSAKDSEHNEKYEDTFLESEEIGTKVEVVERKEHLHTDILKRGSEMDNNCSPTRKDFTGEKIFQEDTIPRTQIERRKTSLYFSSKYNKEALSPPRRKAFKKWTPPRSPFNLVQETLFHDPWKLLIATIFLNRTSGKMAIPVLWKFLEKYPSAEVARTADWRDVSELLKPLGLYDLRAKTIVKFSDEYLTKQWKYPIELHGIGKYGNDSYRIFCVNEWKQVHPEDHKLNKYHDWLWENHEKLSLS

As usually defined, the inhibition is the change of the read-out against control, counted positive when it falls. In the case of `Fc1cccc(/C=N/N=C/c2cccc(F)c2)c1`, the inhibition in [1] was -2.88%; in assay [2] it was -1.37%; in assay [3], -6.06%; in [4], 15.4%; in assay [5] it was 4.13%; in assay [6], -5.18%. The inhibition in [7] is 5.75%; in assay [8], 1.53%.

Take `C[C@@H](NC(=O)Cc1ccc(C2CC2)cc1)c1ccc(OCC(F)(F)F)cn1`: the inhibition was 10.8% in assay [1]; -6.21% in assay [2]; -2.14% in assay [3]; 11.3% in [4]; 4.9% in assay [5]; 0.602% in assay [6]. For the same compound, the inhibition in [7] was 4.49%; in assay [8], -6.51%.

For the compound `c1ccc(C2CN3CCC2CC3)cc1` (stereo not drawn), the inhibition in [1] was 3.54%; in assay [2] it was -3.92%; in assay [3], -9.01%; in assay [4], 26.2%; in assay [5], 22%; in [6], 0.158%. Further, the results for the inhibition in assay [7] and in assay [8] were 22.8% and 22.9%, respectively.

As to `C[C@H]1CN(C[C@H](Cc2ccccc2)C(=O)NCC(=O)O)CC[C@@]1(C)c1cccc(O)c1`, the inhibition is 22.9% in [1]; -9.01% in assay [2]; -7.63% in assay [3]; 34.4% in assay [4]; 21.1% in [5]; -4.44% in assay [6]. Besides, the inhibition was 37.5% in assay [7] and 40.2% in [8].

As to `C[C@H](NC(=O)[C@H](Cc1ccccc1)NC(=O)[C@H](CCC(N)=O)NC(=O)CNC(=O)[C@@H]1CCCN1C(=O)[C@H](Cc1ccccc1)NC(=O)[C@@H](N)Cc1ccc(O)cc1)C(=O)N[C@@H](Cc1ccccc1)C(=O)N[C@@H](CO)C(=O)O`, the inhibition in [1] is 6.08%; in assay [2], 2.96%; in assay [3] it was -4.67%; in [4], 21.2%; in assay [5], 12.6%; in assay [6], 13.2%. Also, the inhibition turned out to be 9.05% in assay [7] and 2.52% in assay [8].

As for `c1cnc2cc3c(cc2n1)[C@@H]1CNC[C@H]3C1`, the inhibition in assay [1] was 9.33%; in assay [3] it was -9.92%; in assay [4], 12.9%; in [5], 15.3%; in [6], 4.16%; in [7] it was 13.7%. Further, the inhibition in assay [8] worked out at 34.7%.

As to `Cc1ccccc1C(=O)Nc1ccc(C(=O)N2CCCC(N(C)C)c3ccccc32)cc1` (stereo not drawn), the inhibition is 11.6% in assay [1]; -2.08% in assay [3]; 21.2% in [4]; 19.4% in assay [5]; 11.6% in [6]; 18.4% in assay [7]. The inhibition in assay [8] came out at 10.3%.

Take `Nc1nc(CC(=O)Nc2ccc(CCNC[C@H](O)c3ccccc3)cc2)cs1`: the inhibition is 5.02% in assay [1]; -2.64% in assay [2]; -1.78% in [3]; 22% in assay [4]; 6.31% in [5]; 3.71% in assay [6]. Also, the inhibition is 2.71% in assay [7] and 7.21% in [8].

In the case of `CCN(c1ccccc1)c1cc(NC)[n+](C)c(C)n1`, the inhibition was 1.67% in [1]; 4.75% in assay [2]; -8.21% in assay [3]; 30.3% in [4]; 25.3% in assay [5]; -3.4% in [6]. The values for the inhibition in [7] and in assay [8] were 7.48% and 7.99%, respectively.

As to `CCOC(=O)c1ncn2c1[C@@H]1CCCN1C(=O)c1cc(OC)ccc1-2`, the inhibition in assay [1] was -5.68%; in assay [2] it was -4.43%; in assay [3] it was -7.79%; in [4], -3.56%; in assay [5] it was 14.4%; in [6] it was -2.51%. The values for the inhibition in assay [7] and in assay [8] were -5.12% and -3.58%, respectively.

As to `FC(F)(F)c1cccc(-c2noc(-c3cc(-c4ccccc4)c(C(F)(F)F)s3)n2)c1`, the inhibition was -0.823% in assay [1]; -4.73% in [2]; 4.86% in assay [4]; 6.66% in assay [5]; 9.3% in assay [7]; 1.81% in assay [8]. Further, the inhibition in assay [9] was -2.17%.

With `Cc1cc(C)c(NC(=O)C2CC3CCC2C3)c(C)c1` (stereo not drawn), the inhibition in assay [1] is 7.56%; in [3], -9.01%; in assay [4], 6.35%; in assay [5] it was 26.4%; in assay [6] it was -1.18%; in [7], 5.7%. In addition, the inhibition in [8] was found to be 27.8%.

Consider `CCCNC(=O)c1nnc2c(-c3c(F)cccc3OC)cccc2c1N`, for which the inhibition in assay [1] is 12.4%; in assay [2], -2.64%; in assay [3], -1.98%; in [4] it was 27.8%; in assay [5], 26.8%; in [6], 10.5%. Also, the values for the inhibition in [7] and in assay [8] were 24.5% and 24.9%, respectively.

For `CNC(=O)[C@H]1O[C@@H](n2cnc3c(NCc4cccc(I)c4)ncnc32)[C@H](O)[C@@H]1O`, the inhibition in assay [1] is 2.83%; in assay [2] it was -8.76%; in [3], -5.89%; in [4], -2.73%; in [5], 10.4%; in assay [6], -7.1%. Also, the inhibition amounted to 6.72% in [7] and 14.2% in [8].

Take `CC1(C)N=C(C2CCCCC2)c2ccc(C#N)cc2N(c2ccc(NCCNC3CCOCC3)cc2)C1=O`: the inhibition in [1] was 7.31%; in assay [2], -3.41%; in assay [4], 19.6%; in assay [5], 10.6%; in [6] it was 4.75%; in assay [7], 5.19%. The inhibition in [8] was 1.14%.

Take `CN1CC[C@@]23CCCC[C@@H]2[C@@H]1Cc1ccc(O)cc13`: the inhibition is -0.416% in assay [1]; -9.52% in [2]; -7.94% in [3]; 14.6% in assay [4]; 3.69% in assay [5]; -2.06% in assay [6]. The inhibition was -3.74% in assay [7] and -5.81% in [8].

As to `CN1CCN(Cc2ccc(-c3cccc(C(=O)Nc4ccccc4CC(=O)O)c3)cc2)CC1`, the inhibition in assay [1] is 12.7%; in assay [2], -2.64%; in assay [3] it was -2.65%; in assay [4], -1.91%; in assay [5], 18.1%; in [6] it was 17.2%. In addition, the values for the inhibition in assay [7] and in assay [8] were 14.1% and 17.7%, respectively.

On to `COC[C@@H](c1ccc(C(F)(F)F)cc1)N1CCN(C2(C)CCN(C(=O)c3c(C)ncnc3C)CC2)C[C@@H]1C`, for which the inhibition in assay [1] is -7.67%; in assay [3] it was -3.97%; in [4] it was 16.2%; in assay [5], 11.1%; in assay [6], -4.58%; in [7], -1.76%. For the same compound, in assay [8], the inhibition is 7.5%.

Consider `CN(Cc1cccc(F)c1CNc1cc(F)c(S(=O)(=O)Nc2cscn2)c(F)c1)C(C)(C)C`, for which the inhibition in assay [1] was 20.1%; in assay [2], -2.39%; in [3] it was -9.64%; in [4] it was 18.7%; in assay [5] it was 28.6%; in assay [6] it was 2.08%. Moreover, the figures for the inhibition in assay [7] and in assay [8] were 4.92% and 40.5%, respectively.

Consider `CC1(C)Cc2c(CN3CCC4(CC3)CCN(C(=O)c3ccc(N)cn3)CC4)cccc2O1`, for which the inhibition was 8.62% in assay [1]; -6.46% in assay [2]; 8.82% in assay [4]; 21.4% in [5]; 7.27% in assay [6]; -2.08% in assay [7]. The inhibition in assay [8] is 2.36%.
